The compounds below were run on Pseudomonas aeruginosa ATCC 15442 (assay: DGHM suspension test, microbicidal activity). Conditions: CU 200 mg/l; contact time 30 mins.
Assay type: cell-based
Experimental: (§1) The microbicidal activity of the quanterary carboxylic acid alkanolamine ester salts used in accordance with the invention was tested against the following selected test germs:
(§2) The effectiveness of the compound to be tested was determined by the suspension test in accordance with the guidelines of the Deutsche Gesellschaft for Hygiene and Mikrobiologie (DGHM). Test solutions containing quatemary carboxylic acid alkanolamine ester salts in the quantities shown in the Tables of 50, 100, 200, 400 and 800 mg/l were prepared using water with a hardness of 17° dH and optionally isopropanol.
(§3) At room temperatures, quantities of 0.1 ml test germ suspension were pipetted into test tubes containing 10 ml of the test solutions described above and mixed. After various contact times of 5, 15, 30 and 60 minutes, 1 ml of material was taken from the test tubes by pipette and transferred to 9 ml inactivator solution (inactivators: 3.0% Tween, 0.3% lecithin, 0.1% histidine). After in activation for at least 5 and at most 30 minutes, the living germ count was determined by plating out onto casein peptone-soybean flour peptone (CaSo)-agar plates. Using a spiral plater, the inactivating mixture was directly plated out onto CaSo-agar. The samples were incubated for 24 to 72 hours at 37° C. and macroscopically evaluated for growth. The destruction time or the residual germ count was determined in this way. The germ count of an unchallenged water control is related to the germ count of the inactivated test solution taking the dilution into account. The higher the value, the better the microbicidal effect. The symbol < means that the logarithmic reductuon factor is below the indicated value or, in the case of the symbol >, above the indicated value. The abbreviation CU stands for “concentration used”.
`CCCCCCCC(=O)OCC[N+](C)(C)CCOC(=O)CCCCCCC.COS(=O)(=O)[O-]` [Example 1, dimethyl diethanolammonium dicaprylic acid ester methosulfate] was tested, and the logarithmic reduction factor was <1.55.

Same assay, conditions: CU 200 mg/l; contact time 60 mins.
In the case of `CCCCCCCC(=O)OCC[N+](C)(C)CCOC(=O)CCCCCCC.COS(=O)(=O)[O-]` [Example 1, dimethyl diethanolammonium dicaprylic acid ester methosulfate], the logarithmic reduction factor is reported as <1.56.

Same assay, conditions: CU 400 mg/l; contact time 5 mins.
For `CCCCCCCC(=O)OCC[N+](C)(C)CCOC(=O)CCCCCCC.COS(=O)(=O)[O-]` [Example 1, dimethyl diethanolammonium dicaprylic acid ester methosulfate], the logarithmic reduction factor was <1.83.

Same assay, conditions: CU 400 mg/l; contact time 15 mins.
`CCCCCCCC(=O)OCC[N+](C)(C)CCOC(=O)CCCCCCC.COS(=O)(=O)[O-]` [Example 1, dimethyl diethanolammonium dicaprylic acid ester methosulfate] was tested, and the logarithmic reduction factor was <1.47.

Same assay, conditions: CU 400 mg/l; contact time 30 mins.
For `CCCCCCCC(=O)OCC[N+](C)(C)CCOC(=O)CCCCCCC.COS(=O)(=O)[O-]` [Example 1, dimethyl diethanolammonium dicaprylic acid ester methosulfate], the logarithmic reduction factor was 3.22.

Same assay, conditions: CU 400 mg/l; contact time 60 mins.
`CCCCCCCC(=O)OCC[N+](C)(C)CCOC(=O)CCCCCCC.COS(=O)(=O)[O-]` [Example 1, dimethyl diethanolammonium dicaprylic acid ester methosulfate] was tested, and the logarithmic reduction factor was 4.41.

Same assay, conditions: CU 800 mg/l; contact time 5 mins.
In the case of `CCCCCCCC(=O)OCC[N+](C)(C)CCOC(=O)CCCCCCC.COS(=O)(=O)[O-]` [Example 1, dimethyl diethanolammonium dicaprylic acid ester methosulfate], the logarithmic reduction factor is reported as >5.83.

Same assay, conditions: CU 800 mg/l; contact time 15 mins.
In the case of `CCCCCCCC(=O)OCC[N+](C)(C)CCOC(=O)CCCCCCC.COS(=O)(=O)[O-]` [Example 1, dimethyl diethanolammonium dicaprylic acid ester methosulfate], the logarithmic reduction factor is reported as >5.47.

Same assay, conditions: CU 800 mg/l; contact time 30 mins.
In the case of `CCCCCCCC(=O)OCC[N+](C)(C)CCOC(=O)CCCCCCC.COS(=O)(=O)[O-]` [Example 1, dimethyl diethanolammonium dicaprylic acid ester methosulfate], the logarithmic reduction factor is reported as >5.55.

Same assay, conditions: CU 800 mg/l; contact time 60 mins.
`CCCCCCCC(=O)OCC[N+](C)(C)CCOC(=O)CCCCCCC.COS(=O)(=O)[O-]` [Example 1, dimethyl diethanolammonium dicaprylic acid ester methosulfate] was tested, and the logarithmic reduction factor was >5.56.

Each compound was assayed on Staphylococcus aureus ATCC 6538 (assay: DGHM suspension test, microbicidal activity). Conditions: CU 50 mg/l; contact time 5 mins.
Assay type: cell-based
Experimental: as §1, §2, §3
For `CCCCCCCC(=O)OCC[N+](C)(C)CCOC(=O)CCCCCCC.COS(=O)(=O)[O-]` [Example 1, dimethyl diethanolammonium dicaprylic acid ester methosulfate], the logarithmic reduction factor was <1.32.

Same assay, conditions: CU 50 mg/l; contact time 15 mins.
In the case of `CCCCCCCC(=O)OCC[N+](C)(C)CCOC(=O)CCCCCCC.COS(=O)(=O)[O-]` [Example 1, dimethyl diethanolammonium dicaprylic acid ester methosulfate], the logarithmic reduction factor is reported as <1.71.

Same assay, conditions: CU 50 mg/l; contact time 30 mins.
With `CCCCCCCC(=O)OCC[N+](C)(C)CCOC(=O)CCCCCCC.COS(=O)(=O)[O-]` [Example 1, dimethyl diethanolammonium dicaprylic acid ester methosulfate] the logarithmic reduction factor was <1.23.

Same assay, conditions: CU 50 mg/l; contact time 60 mins.
For `CCCCCCCC(=O)OCC[N+](C)(C)CCOC(=O)CCCCCCC.COS(=O)(=O)[O-]` [Example 1, dimethyl diethanolammonium dicaprylic acid ester methosulfate], the logarithmic reduction factor was <1.32.

Same assay, conditions: CU 100 mg/l; contact time 5 mins.
In the case of `CCCCCCCC(=O)OCC[N+](C)(C)CCOC(=O)CCCCCCC.COS(=O)(=O)[O-]` [Example 1, dimethyl diethanolammonium dicaprylic acid ester methosulfate], the logarithmic reduction factor is reported as <1.32.

Same assay, conditions: CU 100 mg/l; contact time 15 mins.
In the case of `CCCCCCCC(=O)OCC[N+](C)(C)CCOC(=O)CCCCCCC.COS(=O)(=O)[O-]` [Example 1, dimethyl diethanolammonium dicaprylic acid ester methosulfate], the logarithmic reduction factor is reported as <1.71.

Same assay, conditions: CU 100 mg/l; contact time 30 mins.
In the case of `CCCCCCCC(=O)OCC[N+](C)(C)CCOC(=O)CCCCCCC.COS(=O)(=O)[O-]` [Example 1, dimethyl diethanolammonium dicaprylic acid ester methosulfate], the logarithmic reduction factor is reported as <1.23.

Same assay, conditions: CU 100 mg/l; contact time 60 mins.
For `CCCCCCCC(=O)OCC[N+](C)(C)CCOC(=O)CCCCCCC.COS(=O)(=O)[O-]` [Example 1, dimethyl diethanolammonium dicaprylic acid ester methosulfate], the logarithmic reduction factor was <1.32.

Same assay, conditions: CU 200 mg/l; contact time 5 mins.
In the case of `CCCCCCCC(=O)OCC[N+](C)(C)CCOC(=O)CCCCCCC.COS(=O)(=O)[O-]` [Example 1, dimethyl diethanolammonium dicaprylic acid ester methosulfate], the logarithmic reduction factor is reported as <1.32.

Same assay, conditions: CU 200 mg/l; contact time 15 mins.
In the case of `CCCCCCCC(=O)OCC[N+](C)(C)CCOC(=O)CCCCCCC.COS(=O)(=O)[O-]` [Example 1, dimethyl diethanolammonium dicaprylic acid ester methosulfate], the logarithmic reduction factor is reported as <1.71.

Same assay, conditions: CU 200 mg/l; contact time 30 mins.
In the case of `CCCCCCCC(=O)OCC[N+](C)(C)CCOC(=O)CCCCCCC.COS(=O)(=O)[O-]` [Example 1, dimethyl diethanolammonium dicaprylic acid ester methosulfate], the logarithmic reduction factor is reported as <1.23.

Same assay, conditions: CU 200 mg/l; contact time 60 mins.
In the case of `CCCCCCCC(=O)OCC[N+](C)(C)CCOC(=O)CCCCCCC.COS(=O)(=O)[O-]` [Example 1, dimethyl diethanolammonium dicaprylic acid ester methosulfate], the logarithmic reduction factor is reported as <1.32.

Same assay, conditions: CU 400 mg/l; contact time 5 mins.
With `CCCCCCCC(=O)OCC[N+](C)(C)CCOC(=O)CCCCCCC.COS(=O)(=O)[O-]` [Example 1, dimethyl diethanolammonium dicaprylic acid ester methosulfate] the logarithmic reduction factor was <1.32.

Same assay, conditions: CU 400 mg/l; contact time 15 mins.
For `CCCCCCCC(=O)OCC[N+](C)(C)CCOC(=O)CCCCCCC.COS(=O)(=O)[O-]` [Example 1, dimethyl diethanolammonium dicaprylic acid ester methosulfate], the logarithmic reduction factor was <1.1.

Same assay, conditions: CU 400 mg/l; contact time 30 mins.
Work on `CCCCCCCC(=O)OCC[N+](C)(C)CCOC(=O)CCCCCCC.COS(=O)(=O)[O-]` [Example 1, dimethyl diethanolammonium dicaprylic acid ester methosulfate] yielded a logarithmic reduction factor of 1.95.

Same assay, conditions: CU 400 mg/l; contact time 60 mins.
In the case of `CCCCCCCC(=O)OCC[N+](C)(C)CCOC(=O)CCCCCCC.COS(=O)(=O)[O-]` [Example 1, dimethyl diethanolammonium dicaprylic acid ester methosulfate], the logarithmic reduction factor is reported as 3.54.

Same assay, conditions: CU 800 mg/l; contact time 5 mins.
With `CCCCCCCC(=O)OCC[N+](C)(C)CCOC(=O)CCCCCCC.COS(=O)(=O)[O-]` [Example 1, dimethyl diethanolammonium dicaprylic acid ester methosulfate] the logarithmic reduction factor was <1.32.

Same assay, conditions: CU 800 mg/l; contact time 15 mins.
In the case of `CCCCCCCC(=O)OCC[N+](C)(C)CCOC(=O)CCCCCCC.COS(=O)(=O)[O-]` [Example 1, dimethyl diethanolammonium dicaprylic acid ester methosulfate], the logarithmic reduction factor is reported as <3.59.

Same assay, conditions: CU 800 mg/l; contact time 30 mins.
In the case of `CCCCCCCC(=O)OCC[N+](C)(C)CCOC(=O)CCCCCCC.COS(=O)(=O)[O-]` [Example 1, dimethyl diethanolammonium dicaprylic acid ester methosulfate], the logarithmic reduction factor is reported as <3.96.

Same assay, conditions: CU 800 mg/l; contact time 60 mins.
For `CCCCCCCC(=O)OCC[N+](C)(C)CCOC(=O)CCCCCCC.COS(=O)(=O)[O-]` [Example 1, dimethyl diethanolammonium dicaprylic acid ester methosulfate], the logarithmic reduction factor was >5.32.

— patent US6420330B1, “Use of quaternary carboxylic acid alkanolamine ester salts as microbicide agents” (Cognis Deutschland GmbH, priority 1997, dated 2002)
